Results: US9464112B2, “Peptides having NF-κB inhibitory activity, or composition comprising same” (KNU-INDUSTRY COOPERATION FOUNDATION, priority 2012, dated 2016)

Tests used:
Format in all cases: cell-based
MMP-1 = MMP-1 expression in UVB-irradiated human dermal fibroblasts (Western blotting); conditions: peptide 0.1˜2 μM, UVB 312 nm 12.5 mJ/cm^2, 48 hours, dose-dependent
Text: (§1) It is known that MMP-1, the expression of which is induced by ultraviolet stimulation in human dermal fibroblasts, degrades collagen fibers to facilitate cutaneous photoaging as well as wrinkle formation. Since the expression of MMP-1 is induced by NF-κB activation, we evaluate the inhibition thereof by the treatment of the peptides of the present invention, using human dermal fibroblasts (ATCC PCS-201-012, USA).
(§2) The human dermal fibroblasts was irradiated with UVB (312 nm, 12.5 mJ/cm^2) and then treated with the peptide of SEQ ID NO: 1 in the concentrations of 0.1˜2 μM. After 48 hours, the cell extracts were subject to the Western blotting assay so as to measure the expressions of MMP-1 and procollagen type-1. […] Therefore, it can be seen that the peptide of the present invention can inhibit ultraviolet radiation-induced cutaneous photoaging.

procollagen type-1 = assay: Procollagen type-1 expression in UVB-irradiated human dermal fibroblasts (Western blotting); conditions: peptide 0.1˜2 μM, UVB 312 nm 12.5 mJ/cm^2, 48 hours, dose-dependent
Text: as §1, §2

TNF-α = TNF-α expression in UVB-irradiated human keratinocytes HaCaT (Western blotting); conditions: UVB 312 nm 12.5 mJ/cm^2, 48 hours, peptide 0.1˜2 μM, dose-dependent
Method: (§3) We evaluated the inhibitory activities of the peptide of the present invention on expressions of the representative pro-inflammatory factors, i.e., TNF-α and IL-1α, the expressions of which are induced by ultraviolet stimulation. Specifically, the HaCaT cells (Molecular Biology Engineering Lab, Chemical & Biochemical Engineering, Dongguk University) were irradiated with UVB (312 nm, 12.5 mJ/cm^2) and then treated with the peptide of SEQ ID NO: 1 in the concentrations of 0.1˜2 μM. At this time, the control group was treated with dexamethasone (Dex) having the immunosuppressive function, at the irradiation of UVB. After 48 hours, the cell extracts were subject to the Western blotting assay so as to measure the expressions of TNF-α and IL-1α.

IL-1α = IL-1α expression in UVB-irradiated human keratinocytes HaCaT (Western blotting); conditions: UVB 312 nm 12.5 mJ/cm^2, 48 hours, peptide 0.1˜2 μM, dose-dependent
Method: as §3

PGE2 = PGE2 formation in UVB-irradiated human keratinocytes HaCaT (enzyme immunoassay); conditions: peptide 0.1˜2 μM, dose-dependent
Method: as §3
(§4) And also, the cell extracts were subject to the enzyme immunoassay so as to evaluate the inhibitory effects on formation of PGE2 (one of pro-inflammatory factors). For this assay, we also used the group treated with dexamethasone at the irradiation of UVB as a control group. In addition, the expression of COX-2 (which is a PGE2 formation-mediating enzyme) was measured through the Western blotting assay; and the results thereof are shown in FIG. 8.

COX-2 = COX-2 expression in UVB-irradiated human keratinocytes HaCaT (Western blotting); conditions: peptide 0.1˜2 μM, dose-dependent
Method: as §3, §4

## Arg-Phe-Arg (RFR; Peptide fragment) [SEQ ID NO: 1, peptide fragment derived from the NF-κB p65 subunit]
MMP-1
  expression of MMP-1 increased by ultraviolet stimulation: reduced
Procollagen type-1
  expression of procollagen type-1: increased
TNF-α
  expression of TNF-α: reduced
IL-1α
  expression of IL-1α: reduced
PGE2
  PGE2 formation increased by ultraviolet stimulation: reduced
COX-2
  expression of COX-2: reduced
